{"source": "ChEMBL document CHEMBL1151642", "about": "“Dictyol H, a New Tricyclic Diterpenoid from the Brown Seaweed Dictyota dentata” (J Nat Prod, 1985)", "key": {"[1]": {"experiment": "Antitumor activity against human 9KB cells", "assay_type": "functional, cell-based"}, "Escherichia coli": {"test_system": "Escherichia coli", "experiment": "Antimicrobial activity against Escherichia coli at 100 ug", "assay_type": "functional, organism-based"}, "Pseudomonas aeruginosa": {"test_system": "Pseudomonas aeruginosa", "experiment": "Antimicrobial activity against Pseudomonas aeruginosa at 100 ug", "assay_type": "functional, organism-based"}}, "note": "The source made the active and inactive calls. No cut-off for these calls is given here."}
{"smiles": "C=C1CC[C@@H]([C@@]2(C)CC[C@H](C(C)(C)OC(C)=O)O2)[C@@H](O)[C@H]2C(C)=CC[C@@H]12", "note": "[DICTYOL H]", "values": [{"measurement": "IC50", "setting": "[1]", "value": 22, "unit": "µg/mL"}, {"measurement": "Activity", "setting": "Escherichia coli", "value": "inactive"}, {"measurement": "Activity", "setting": "Pseudomonas aeruginosa", "value": "inactive"}]}
